Read-outs that look alike come from different tables or passages of the source.
Key:
[1] = biological target: T1, Full-length wild type HIV-1 integrase (SF1) (Human immunodeficiency virus type 1 group M subtype B, UniProt P04585); assay: Integrase strand-transfer scintillation proximity assay; type: biochemical; details: strand transfer, 50 min at 37° C., 246 nM integrase, 50 nM host DNA; read-out: IC50
T1 construct: made in house; host or cells: E. coli BL21 (DE3)
Procedure, shortened: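 Recombinant full-length wild-type HIV-1 integrase (aa 1-288), E. coli-expressed, tested on biotinylated pre-processed U5 LTR viral ds-DNA with CA overhang bound to streptavidin SPA beads. [3H]-thymidine-labelled host ds-DNA serves as target; strand transfer read by scintillation proximity. A 3′ di-deoxy viral DNA control checks non-specific binding.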

[2] = tested on: RF strain of HIV-1 in CEM-SS cells; assay: HIV-1 cell protection assay (XTT dye reduction); type: cell-based; details: HIV-1 RF, CEM-SS cells, XTT dye reduction, six days, read-out: EC50
Procedure, shortened: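 CEM-SS cells infected with HIV-1 RF (moi 0.025–0.819) or mock-infected, 2×10^4 cells/well with half-log compound dilutions for six days. Viability by XTT/PMS reduction (4 h), absorbance 450 nm, as % of uninfected untreated cells. Therapeutic index = CC50/EC50.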

[3] = Human immunodeficiency virus 1, CEM-SS, 144 h

SMILES | IC50 [1] | EC50 [2, 3] | EC50 [2]
CN(C)CC(C)(C)CNCc1cn(Cc2ccc(F)cc2F)c2cnc(C(=O)NO)cc12 [Example 61, 1-(2,4-Difluorobenzyl)-3-({[3-(dimethylamino)-2,2-dimethylpropyl]amino}methyl)-N-hydroxy-1H-pyrrolo[2,3-c]pyridine-5-carboxamide] | 916 nM | 35 nM | –
CCN1CCCC1CNCc1cn(Cc2ccc(F)cc2F)c2cnc(C(=O)NO)cc12 (stereo not drawn) [Example 62, 1-(2,4-Difluorobenzyl)-3-({[(1-ethylpyrrolidin-2-yl)methyl]amino}methyl)-N-hydroxy-1H-pyrrolo[2,3-c]pyridine-5-carboxamide] | 671 nM | – | 17 nM
CN(CCc1ccccn1)Cc1cn(Cc2ccc(F)cc2F)c2cnc(C(=O)NO)cc12 [Example 63, 1-(2,4-Difluorobenzyl)-N-hydroxy-3-{[methyl(2-pyridin-2-ylethyl)amino]methyl}-1H-pyrrolo[2,3-c]pyridine-5-carboxamide] | 424 nM | 16 nM | –
O=C(NO)c1cc2c(CN[C@H](CO)Cc3ccccc3)cn(Cc3ccc(F)cc3F)c2cn1 [Example 64, 3-({[(1S)-1-Benzyl-2-hydroxyethyl]amino}methyl)-1-(2,4-difluorobenzyl)-N-hydroxy-1H-pyrrolo[2,3-c]pyridine-5-carboxamide] | 328 nM | 17 nM | –
CC(O)CNCc1cn(Cc2ccc(F)cc2F)c2cnc(C(=O)NO)cc12 (stereo not drawn) [Example 65, 1-(2,4-Difluorobenzyl)-N-hydroxy-3-{[(2-hydroxypropyl)amino]methyl}-1H-pyrrolo[2,3-c]pyridine-5-carboxamide] | 625 nM | 14 nM | –
Cc1cnc(CNCc2cn(Cc3ccc(F)cc3F)c3cnc(C(=O)NO)cc23)cn1 [Example 66, 1-(2,4-Difluorobenzyl)-N-hydroxy-3-({[(5-methylpyrazin-2-yl)methyl]amino}methyl)-1H-pyrrolo[2,3-c]pyridine-5-carboxamide] | 357 nM | 11 nM | –
O=C(NO)c1cc2c(CNCCc3c[nH]c4ccccc34)cn(Cc3ccc(F)cc3F)c2cn1 [Example 67, 1-(2,4-Difluorobenzyl)-N-hydroxy-3-({[2-(1H-indol-3-yl)ethyl]amino}methyl)-1H-pyrrolo[2,3-c]pyridine-5-carboxamide] | 283 nM | 15 nM | –
O=C(NO)c1cc2c(CNCCCN3CCCC3=O)cn(Cc3ccc(F)cc3F)c2cn1 [Example 68, 1-(2,4-Difluorobenzyl)-N-hydroxy-3-({[3-(2-oxopyrrolidin-1-yl)propyl]amino}methyl)-1H-pyrrolo[2,3-c]pyridine-5-carboxamide] | 549 nM | 100 nM | –
CCN(CCO)Cc1cn(Cc2ccc(F)cc2F)c2cnc(C(=O)NO)cc12 [Example 69, 1-(2,4-Difluorobenzyl)-3-{[ethyl(2-hydroxyethyl)amino]methyl}-N-hydroxy-1H-pyrrolo[2,3-c]pyridine-5-carboxamide] | 755 nM | 28 nM | –
O=C(NO)c1cc2c(CNCc3ccc(F)cc3)cn(Cc3ccc(F)cc3F)c2cn1 [Example 70, 1-(2,4-Difluorobenzyl)-3-{[(4-fluorobenzyl)amino]methyl}-N-hydroxy-1H-pyrrolo[2,3-c]pyridine-5-carboxamide] | 332 nM | 22 nM | –
CC(NCc1cn(Cc2ccc(F)cc2F)c2cnc(C(=O)NO)cc12)c1ccccc1 (stereo not drawn) [Example 71, 1-(2,4-Difluorobenzyl)-N-hydroxy-3-{[(1-phenylethyl)amino]methyl}-1H-pyrrolo[2,3-c]pyridine-5-carboxamide] | 409 nM | 44 nM | –
CN(C)CCNCc1cn(Cc2ccc(F)cc2F)c2cnc(C(=O)NO)cc12 [Example 72, 1-(2,4-Difluorobenzyl)-3-({[2-(dimethylamino)ethyl]amino}methyl)-N-hydroxy-1H-pyrrolo[2,3-c]pyridine-5-carboxamide] | 658 nM | 29 nM | –

— patent publication US7468375B2 (Pfizer Inc., priority 2004, dated 2008)
